# Results from US11033531B2, “Use of carbamate compound for preventing, alleviating, or treating tremors or tremor syndrome” (SK BIOPHARMACEUTICALS CO., LTD., priority 2016, dated 2021).
# Marks after values point to notes of the source that are not given here.
# Test system: oxotremorine-induced tremor in rats
# Test: Oxotremorine-induced tremor in rats
# Assay type: in vivo, rat
# Conditions: for Number of tremor behaviors: male SD rats, behaviors of at least 0.5 s in 2,048 s, mean±SEM
# Text: As a model for assessing the potential efficacy of therapeutic agents that can effectively treat essential tremor and other tremor syndromes, oxotremorine-induced tremor in rats was used [B Cox, D Potkonjak, Effects of drugs on tremor and increase in brain acetylcholine produced by oxotremorine in the rat, Br. J. Pharmac., 1970, 38, 171-180].
# Male SD rats (CrjBgi:CD(SD)IGS) were purchased from Orient Bio, Inc. of Korea, and placed in a wire mesh cage under conditions of ambient temperature of 20 to 24° C., 55 to 75% relative humidity, an automatically controlled light-and-darkness cycle of 12 hours and free access to feed (purchased from Agri Brands Purina Korea, Inc.) and water. The rats were housed and maintained in accordance with the Laboratory Animal Care Standards of the Institutional Animal Care and Use Committee (IACUC). After about one week of stabilization, rats weighing 200 to 240 g were used in the experiment. The rats to be used for the experiment were fasted by removing the feed 16 hours before the experiment, and placed in a tremor measurement device (Tremor Monitor™, San Diego Instruments, CA) 3 hours before the experiment and adapted for 10 minutes.
# The test compound was prepared by dissolving it in 30% polyethylene glycol 400 (purchased from Sigma) used as a vehicle 30-45 minutes before each experiment. The vehicle and the test compound (3, 10 and 30 mg/kg dose) were administered into the oral cavity, respectively, in a volume of 4 ml per 1 kg body weight of the rat. After 60 minutes, oxotremorine (oxotremorine sesquifumarate salt, 1-(4-[1-Pyrrolidinyl]-2-butynyl)-2-pyrrolidinone sesquifumarate; purchased from Sigma) dissolved in saline and prepared in a volume of […] or a saline were subcutaneously injected into the back of the rat neck in a volume of 2 ml per 1 kg body weight of the rat. Oxotremorine-administered rats were immediately placed in a tremor measurement device (filter frequency 12 Hz, band-width 6 Hz, filter number 2), and the number of tremor behaviors that progressed for at least 0.5 seconds in 2,048 seconds were automatically measured and recorded. The number of rats per group was 16.
# All data were expressed as mean±SEM. The number of oxotremorine-induced tremor behaviors in the group treated with the test compound was expressed as % inhibition compared to the vehicle group. Statistical analysis of the number of tremor behaviors between groups was performed using one-way ANOVA (one-way analysis of variance) and Dunnett's multiple comparison test by using the GraphPad Prism ver. 4.0 program. The mean number of tremor behaviors in the vehicle/oxotremorine group was observed as 29.8±8.1, and the mean number of tremor behaviors in the vehicle/saline group was observed as 9.2±2.5.
smiles,measurement,setting,value
NC(=O)O[C@@H](Cn1ncnn1)c1ccccc1Cl [Test compound],ED50,"Rattus norvegicus, po, rats, inhibition of oxotremorine-induced tremor behaviors, read-out: Calculated Median Effective Dose (ED50)",1.67 mg/kg
same,inhibition at 3 mg/kg,"Rattus norvegicus, po, 3 mg/kg p.o., rats, vs vehicle/oxotremorine group, corrected for vehicle/saline group, read-out: Inhibition rate compared to negative group",50.3%
same,inhibition at 10 mg/kg,"Rattus norvegicus, po, 10 mg/kg p.o., rats, vs vehicle/oxotremorine group, corrected for vehicle/saline group, read-out: Inhibition rate compared to negative group",78.7%
same,inhibition at 30 mg/kg,"Rattus norvegicus, po, 30 mg/kg p.o., rats, vs vehicle/oxotremorine group, corrected for vehicle/saline group, read-out: Inhibition rate compared to negative group",130%
same,Number of tremor behaviors,3 mg/kg p.o. 60 min before oxotremorine s.c.,19.4 ± 3.7
same,Number of tremor behaviors,10 mg/kg p.o. 60 min before oxotremorine s.c.,13.6 ± 0.1^2)
same,Number of tremor behaviors,30 mg/kg p.o. 60 min before oxotremorine s.c.,2.9 ± 0.5^1)
same,Pharmacological activity in the oxotremorine-induced tremor behavior model,"rats, 3, 10 and 30 mg/kg p.o.",significant pharmacological activity
